# Experimental data published in PMC9784828, “Antimicrobial Activity of Peptide-Coupled Antisense Peptide Nucleic Acids in Streptococcus pneumoniae” (Microbiology Spectrum, 2022).
# How the values were obtained:
# S. pneumoniae TIGR4 = assay: Bacterial killing assay (CFU/mL reduction after 6 h); type: cell-based, Streptococcus pneumoniae; details: for Δlog CFU reduction in S. pneumoniae strains: TIGR4: log CFU reduction CPP-antisense PNA – log CFU reduction CPP-scPNA; for Reduction of bacterial CFU/mL compared to untreated control (in words): concentration range 2.5 to 20 μM, n = 5
# Method: The impact of different CPPs on the efficacy of antisense PNAs targeting gyrA and rpoB in S. pneumoniae was tested using an in vitro killing assay ([25]). S. pneumoniae strains were incubated for 6 h with CPP-antisense PNA conjugates. We determined the reduction of bacterial CFU/mL caused by different CPP-coupled antisense PNA constructs compared to an untreated control. Three different CPPs were tested: HIV-1 TAT (TAT), oligolysin (K8), and (RXR)4XB (Table 1). Concentration-dependent bactericidal activity was investigated by treatment of S. pneumoniae TIGR4 in a CPP-antisense PNA conjugate concentration range of 2.5 to 20 μM (Fig. 1).
# (§1) After culturing S. pneumoniae strains in BHI, D39 and 19F were diluted to approximately 10^5 CFU/mL in phosphate-buffered saline (PBS):BHI (93%:7%), while TIGR4 was diluted to approximately 10^5 CFU/mL in PBS:BHI (96%:4%). Next, 450-μL volumes of the respective bacterial suspensions, containing approximately 0.5× 10^5 CFU, were transferred to 2-mL reaction tubes. A 50-μL volume of PNA solution was added to a final PNA concentration of 1 to 20 μM or as indicated. Fifty μL H2O served as a mock control. The reaction tubes were incubated for 6 h at 37°C and 7 rpm (Rotor SB3; Stuart, Staffordshire, United Kingdom). The concentration of CPP-PNA that reduced CFU/mL by 50% after 6 h of incubation compared to an untreated control (IC50) was calculated by nonlinear regression analysis using GraphPad Prism software (GraphPad Software, San Diego, CA).
# S. pneumoniae strain 19F = assay: as above; type: cell-based, Streptococcus pneumoniae; details: log CFU reduction CPP-antisense PNA – log CFU reduction CPP-scPNA
# Method: Compared to S. pneumoniae strains TIGR4 and D39, strain 19F was clearly affected by incubation with CPP-coupled scPNAs (Fig. S2). Specific antimicrobial activity of TAT-antisense PNAs was low, regardless of the target gene (Fig. S2, Table 2).
# as §1
# S. pneumoniae strain D39 = assay: as above; type: cell-based, Streptococcus pneumoniae; details: log CFU reduction CPP-antisense PNA – log CFU reduction CPP-scPNA
# Method: Similar results were obtained with S. pneumoniae strain D39 (Fig. S1). (RXR)4XB-coupled antisense PNAs were more efficient than TAT-coupled antisense PNAs. […] The difference between the target genes anti-gyrA and anti-rpoB was less pronounced in D39 than in TIGR4 (Table 2).
# as §1
# [1] = tested on: G. mellonella larvae infected with S. pneumoniae TIGR4; assay: G. mellonella infection model, larval survival; type: in vivo, Galleria mellonella; details: 10 nmol CPP-PNA/larva; for Effect on survival of infected larvae (in words): data not shown
# Method: Antimicrobial efficiency of CPP-antisense PNA conjugates was evaluated in vivo employing a G. mellonella infection and treatment model ([22], [28]). Larvae were infected with S. pneumoniae strain TIGR4 and subsequently treated with 10 nmol CPP-anti-gyrA PNAs. Treatment with levofloxacin served as a positive control. Larval survival was observed over 7 days.
# Larvae of the greater wax moth (G. mellonella) were obtained from Bugs-International GmbH (Irsingen/Unterfeld, Germany). For infection experiments, S. pneumoniae TIGR4 was grown for 7 h in BHI, washed twice in a 0.9% NaCl solution, and suspended in 0.9% NaCl to a final concentration of approximately 1 × 10^8 CFU/mL. Larvae weighing 150 to 200 mg were infected with 1 × 10^6 to 3 × 10^6 CFU/larva. Bacteria were injected into the hemocoel of the larvae between the last two pairs of prolegs using a microapplicator (World Precision Instruments, LLC, Sarasota, FL) and a fine-dosage syringe (Omnican-F, 0.01 to 1 mL, 0.30 × 12 mm; B. Braun AG, Melsungen, Germany). As mock control, 0.9% NaCl (PNA experiment) or 0.9% NaCl/3% DMSO (levofloxacin experiment) was injected. For CPP-PNA treatment, larvae were injected 30 min postinfection with 10 nmol CPP-PNA/larva. For levofloxacin treatment, larvae were injected 30 min postinfection with 1 or 10 μg levofloxacin/larva. Larvae were incubated for 7 days, and survival was monitored daily ([22]).
Substance,"Δlog CFU reduction in S. pneumoniae strains: TIGR4 (S. pneumoniae TIGR4; CPNA 2.5 μM, 6 h)","Δlog CFU reduction in S. pneumoniae strains: TIGR4 (S. pneumoniae TIGR4; CPNA 5 μM, 6 h)","Δlog CFU reduction in S. pneumoniae strains: TIGR4 (S. pneumoniae TIGR4; CPNA 10 μM, 6 h)","Δlog CFU reduction in S. pneumoniae strains: TIGR4 (S. pneumoniae TIGR4; CPNA 20 μM, 6 h)","Reduction of bacterial CFU/mL compared to untreated control (in words) (S. pneumoniae TIGR4; TIGR4, 6 h)",Δlog CFU reduction in S. pneumoniae strains: 19F (S. pneumoniae strain 19F; CPNA 2.5 μM),Δlog CFU reduction in S. pneumoniae strains: 19F (S. pneumoniae strain 19F; CPNA 5 μM),Δlog CFU reduction in S. pneumoniae strains: 19F (S. pneumoniae strain 19F; CPNA 10 μM),Δlog CFU reduction in S. pneumoniae strains: 19F (S. pneumoniae strain 19F; CPNA 20 μM),Δlog CFU reduction in S. pneumoniae strains: D39 (S. pneumoniae strain D39; CPNA 2.5 μM),Δlog CFU reduction in S. pneumoniae strains: D39 (S. pneumoniae strain D39; CPNA 5 μM),Δlog CFU reduction in S. pneumoniae strains: D39 (S. pneumoniae strain D39; CPNA 10 μM),Δlog CFU reduction in S. pneumoniae strains: D39 (S. pneumoniae strain D39; CPNA 20 μM),Effect on survival of infected larvae (in words) [1],"Δlog CFU reduction in S. pneumoniae strains: TIGR4 (S. pneumoniae TIGR4; CPNA 20 μM, 6 h, listed as (RXR)4XB-anti-rpoB)","Δlog CFU reduction in S. pneumoniae strains: TIGR4 (S. pneumoniae TIGR4; CPNA 10 μM, 6 h, listed as (RXR)4XB-anti-gyrA)","log CFU reduction (S. pneumoniae TIGR4; TIGR4, 6 h, 20 μM CPP-PNA)","IC50 (S. pneumoniae TIGR4; TIGR4, 6 h incubation vs untreated control, nonlinear regression, read-out: 50% inhibitory concentration (IC50): concentration that reduced CFU/mL by 50%)","Δlog CFU reduction in S. pneumoniae strains: 19F (S. pneumoniae strain 19F; CPNA 10 μM, listed as (RXR)4XB-anti-gyrA)","Increase of survival rate ([1]; 30 min postinfection, 7 days, n = 60)"
"GRKKRRQRRRYK-eg-ctgccaagatga [TAT-anti-rpoB PNA, HIV-1 TAT (48–57) peptide coupled to antisense PNA against S. pneumoniae rpoB]",0,0,0,0,No reduction of bacterial counts,0.05,0.05,0,0,0,0.11,0.16,0.51,did not increase survival,–,–,–,–,–,–
"RXRRXRRXRRXRXB-eg-ctgccaagatga [(RXR)4XB-anti-rpoB PNA, (RXR)4XB peptide coupled to antisense PNA against rpoB]",0,0.40,0.66,≥ 1,significant decreases,0.18,0.17,0.16,0.56,0,0.16,0.61,1.98,did not increase survival,1.58,–,–,–,–,–
"RXRRXRRXRRXRXB-eg-tgcattaata [(RXR)4XB-anti-gyrA PNA, (RXR)4XB peptide coupled to antisense PNA against gyrA]",0,0.98,≥ 1,3.18,significant decreases,0.72,1.20,≥ 1,1.48,0,0,0.42,2.23,–,–,1.80,4,630 nM,1.21,22%
